The values below come from patent publication US4315942A, “Intravenously administrable iron supplement” (New England Medical Center, Inc., priority 1979, dated 1982).

Series [1] can be described thus: Hgb and Hct after IV injection of the complex in a dog. The settings on record: after injection of 12 mg Fe, IV push, about 10 minutes. The class given is in vivo. As to the method: (§1) A 17 kg dog was premedicated and then anesthesized with IV sodium amytal. Through a femoral vein cutdown, the following studies were drawn before and after the addition of the iron complex solution: Hgb, Hct, serum Fe and TIBC (Total Iron Binding Capacity). In addition, serum Fe and TIBC were drawn after the addition of one half of the solution.
(§2) 40 ml of fresh stock solution (containing 6 mg of iron) were given by IV push through the femoral vein. The dog's ECG was monitored throughout the procedure. In approximately 10 minutes, the second set of studies were drawn and a second 40 ml were pushed. The final set of blood studies were drawn in approximately 10 minutes.

The subject of a further series is serum transferrin. As to the kind of experiment: Serum Fe, TIBC and saturation of serum transferrin after IV injection of the complex in a dog (efficacy to increase bioavailable iron). The settings on record: for serum Fe / TIBC (Total Iron Binding Capacity): IV push; for serum Fe: before injection 235 (dog fed an iron rich diet); for TIBC (Total Iron Binding Capacity): before injection 360. The class given is in vivo. The method, then: as §1, §2

For series [2] the following is noted: oral, relatively large daily doses; cited from earlier work.
[3] abbreviates: after injection of 6 mg Fe, about 10 minutes.
Where [4] appears, read: after injection of 12 mg Fe, about 10 minutes after second 40 ml.

`CC(=O)N[O-].CC(=O)N[O-].CC(=O)N[O-].[Fe+3]` [ferric acetohydroxamic acid complex, iron (III) complex of acetohydroxamic acid] yielded a Hgb in series [1] (before injection 6.7) of 6.5 g%. In series [1] (before injection 20.5), this compound had a Hct of 20.0%. Also, in the series with serum transferrin (addition of 6 mg of iron, IV, serum Fe equal to the TIBC), the “saturation of serum transferrin” value was “saturated the serum transferrin”. In addition, the “serum iron relative to TIBC” value with serum transferrin (after a further 6 mg of iron, IV) was “greater than the TIBC”. In addition, the “serum Fe” value in the series on serum transferrin (setting [3]) amounted to 360 μg/100 ml; with serum transferrin (setting [4]), 470 μg/100 ml. The “TIBC (Total Iron Binding Capacity)” value was 360 μg/100 ml with serum transferrin (setting [3]) and 330 μg/100 ml with serum transferrin (setting [4]).
Regarding ferrous sulfate, the side effects entry in series [2] was “nausea, vomiting, constipation”.
